Assay results published in patent US20160083391A1, “TRICYCLIC PIPERAZINE DERIVATIVE” (Sunovion Pharmaceuticals Inc., priority 2014, published 2016).

System: PDE1
Test: In vitro HTRF PDE1 inhibition assay
Type: biochemical
Conditions: HTRF cGMP assay, 100 nM cyclic GMP, PDE (1A3, 1B or 1C) with calmodulin, 45 minutes at 37° C.; isoform of the tabulated values not stated
Method in brief: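 HTRF cGMP competition assay: PDE1A3, 1B or 1C with calmodulin acting on 100 nM cGMP in 1% DMSO, pH 7.4 buffer with Ca2+ and Mg2+, 45 min at 37 °C. Remaining cGMP detected with d2-cGMP and anti-cGMP cryptate (665/615 nm); IC50 reported as banded categories.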

Question: How did the IC50 turn out when `O=c1c2cnc(C3CCCC3)n2nc2n1CCN(c1ccc(F)cc1)C2` [Compound I-183, 3-Cyclopentyl-7-(4-fluorophenyl)-8,9-dihydro-6H-imidazo[5,1-f]pyrazino[2,1-c][1,2,4]triazin-11(7H)-one] was run?
Answer: Its IC50 is less than 1 µM.

Question: How did the IC50 turn out when `CC(C)c1n[nH]c2c(=O)n3c(nc12)CNCC3` [Compound I-10, 3-Isopropyl-5,6,7,8-tetrahydropyrazino[1,2-a]pyrazolo[4,3-a]pyrimidin-10(1H)-one] was run?
Answer: Its IC50 is greater than 10 µM.

Question: For `CC(C)c1nnc2c(=O)n3c(nn12)CN(Cc1ccccn1)CC3` [Compound I-226, 3-Isopropyl-7-(pyridin-2-ylmethyl)-8,9-dihydro-6H-pyrazino[2,1-c][1,2,4]triazolo[3,4-f][1,2,4]triazin-11(7H)-one], which IC50 is on record?
Answer: The IC50 was greater than 10 µM.

Question: Which IC50 does the source give for `CC(C)n1ncc2c(=O)n3c(nc21)CNC(Cc1ccccc1)C3` (racemic) [Compound I-109, (±)-7-Benzyl-1-isopropyl-6,7,8,9-tetrahydropyrazino[1,2-a]pyrazolo[3,4-d]pyrimidin-4(1H)-one] here?
Answer: Its IC50 is greater than 10 µM.

Question: `CC(C)n1ncc2c(=O)n3c(nc21)CN(Cc1cccc(Cl)c1)CC3` [Compound I-70, 8-(3-Chlorobenzyl)-1-isopropyl-6,7,8,9-tetrahydropyrazino[1,2-a]pyrazolo[3,4-d]pyrimidin-4(1H)-one] was tested. Which IC50 did it give?
Answer: The IC50 was less than 1 µM.

Question: With `CC(C)c1n[nH]c2c(=O)n3c(nc12)C(Cc1ccccc1)NCC3` (racemic) [Compound I-12, (±)-5-Benzyl-3-isopropyl-5,6,7,8-tetrahydropyrazino[1,2-a]pyrazolo[4,3-d]pyrimidin-10(1H)-one] as the compound, how does the IC50 read?
Answer: Its IC50 is greater than 10 µM.

Question: How did the IC50 turn out when `CC(C)CC1c2nc3c(cnn3C(C)C)c(=O)n2CCN1Cc1ccccc1` (racemic) [Compound I-56, (±)-8-benzyl-9-isobutyl-1-isopropyl-6,7,8,9-tetrahydropyrazino[1,2-a]pyrazolo[3,4-d]pyrimidin-4(1H)-one] was run?
Answer: The IC50 was 1 to 10 µM.

Question: With `CC1c2nc3c(cnn3C)c(=O)n2CCN1Cc1ccccc1` (racemic) [Compound I-31, (±)-8-Benzyl-1,9-dimethyl-6,7,8,9-tetrahydropyrazino[1,2-a]pyrazolo[3,4-d]pyrimidin-4(1H)-one] as the compound, how does the IC50 read?
Answer: Its IC50 is greater than 10 µM.

Question: Which IC50 does the source give for `COc1ccccc1N1CCn2c(nc3c(cnn3C3CCCC3)c2=O)C1` [Compound I-96, 1-Cyclopentyl-8-(2-methoxyphenyl)-6,7,8,9-tetrahydropyrazino[1,2-a]pyrazolo[3,4-d]pyrimidin-4(1H)-one] here?
Answer: Its IC50 is 1 to 10 µM.

Question: How did the IC50 turn out when `CC(c1ccc(Cl)cc1)N1CCn2c(nc3c(cnn3C3CCCC3)c2=O)C1` (racemic) [Compound I-113, (±)-8-(1-(4-Chlorophenyl)ethyl)-1-cyclopentyl-6,7,8,9-tetrahydropyrazino[1,2-a]pyrazolo[3,4-d]pyrimidin-4(1H)-one] was run?
Answer: The IC50 was 1 to 10 µM.

Question: Which IC50 does the source give for `COCCn1ncc2c(=O)n3c(nc21)CN(Cc1ccc(Cl)cc1)CC3` [Compound I-159, 8-(4-Chlorobenzyl)-1-(2-methoxyethyl)-6,7,8,9-tetrahydropyrazino[1,2-a]pyrazolo[3,4-d]pyrimidin-4(1H)-one] here?
Answer: The IC50 was 1 to 10 µM.

Question: `CC(C)n1ncc2c(=O)n3c(nc21)CN(c1ccccc1)CC3` [Compound I-55, 1-Isopropyl-8-phenyl-6,7,8,9-tetrahydropyrazino[1,2-a]pyrazolo[3,4-d]pyrimidin-4(1H)-one] was tested. Which IC50 did it give?
Answer: The IC50 was 1 to 10 µM.

Question: How did the IC50 turn out when `CCCn1ncc2c(=O)n3c(nc21)CN(Cc1ccccc1)CC3` [Compound I-54, 8-Benzyl-1-propyl-6,7,8,9-tetrahydropyrazino[1,2-a]pyrazolo[3,4-d]pyrimidin-4(1H)-one] was run?
Answer: Its IC50 is 1 to 10 µM.

Question: With `CC(C)c1nnc2c(=O)n3c(nn12)CN(Cc1ccc(Cl)cc1)CC3` [Compound I-221, 7-(4-Chlorobenzyl)-3-isopropyl-8,9-dihydro-6H-pyrazino[2,1-c][1,2,4]triazolo[3,4-f][1,2,4]triazin-11(7H)-one] as the compound, how does the IC50 read?
Answer: Its IC50 is 1 to 10 µM.

Question: With `Cc1cnc(CN2CCn3c(nn4c(C(C)C)ncc4c3=O)C2)nc1` [Compound I-200] as the compound, how does the IC50 read?
Answer: The IC50 was 1 to 10 µM.

Question: Which IC50 does the source give for `O=c1c2c(Nc3ccccc3)n[nH]c2nc2n1CCNC2` [Compound I-16, 3-(Phenylamino)-6,7,8,9-tetrahydropyrazino[1,2-a]pyrazolo[3,4-d]pyrimidin-4(1H)-one] here?
Answer: Its IC50 is greater than 10 µM.

Question: For `CC(C)c1ncc2c(=O)n3c(nn12)CN(c1ccc(C(F)(F)F)cc1)CC3` [Compound I-240], which IC50 is on record?
Answer: Its IC50 is less than 1 µM.

Question: For `CCOc1cc(N2CCn3c(nn4c(C(C)C)ncc4c3=O)C2)ccc1F` [Compound I-177, 7-(3-Ethoxy-4-fluorophenyl)-3-isopropyl-8,9-dihydro-6H-imidazo[5,1-f]pyrazino[2,1-c][1,2,4]triazin-11(7H)-one], which IC50 is on record?
Answer: Its IC50 is less than 1 µM.

Question: With `CC(C)c1ncc2c(=O)n3c(nn12)CN(c1ccc(Cl)cc1)CC3` [Compound I-175, 7-(4-Chlorophenyl)-3-isopropyl-8,9-dihydro-6H-imidazo[5,1-f]pyrazino[2,1-c][1,2,4]triazin-11(7H)-one] as the compound, how does the IC50 read?
Answer: The IC50 was less than 1 µM.

Question: `O=c1c2cn[nH]c2nc2n1CCN(Cc1ccccc1)C2` [Compound I-27, 8-Benzyl-6,7,8,9-tetrahydropyrazino[1,2-a]pyrazolo[3,4-d]pyrimidin-4(1H)-one] was tested. Which IC50 did it give?
Answer: The IC50 was greater than 10 µM.

Question: Which IC50 does the source give for `O=c1c2cnn(C3CCCC3)c2nc2n1CCN(c1ccc(Cl)cc1)C2` [Compound I-93, 8-(4-Chlorophenyl)-1-cyclopentyl-6,7,8,9-tetrahydropyrazino[1,2-a]pyrazolo[3,4-d]pyrimidin-4(1H)-one] here?
Answer: Its IC50 is less than 1 µM.

Question: Which IC50 does the source give for `CC(C)n1ncc2c(=O)n3c(nc21)CN(Cc1cccc(-c2ccccc2)c1)CC3` [Compound I-65, 8-([1,1′-Biphenyl]-3-ylmethyl)-1-isopropyl-6,7,8,9-tetrahydropyrazino[1,2-a]pyrazolo[3,4-d]pyrimidin-4(1H)-one] here?
Answer: The IC50 was less than 1 µM.

Question: How did the IC50 turn out when `CC1c2nc3c(cnn3-c3ccccc3)c(=O)n2CCN1Cc1ccccc1` (racemic) [Compound I-33, (±)-8-Benzyl-9-methyl-1-phenyl-6,7,8,9-tetrahydropyrazino[1,2-a]pyrazolo[3,4-d]pyrimidin-4(1H)-one] was run?
Answer: Its IC50 is greater than 10 µM.

Question: For `CC(C)c1ncc2c(=O)n3c(nn12)CN(Cc1cnccn1)CC3` [Compound I-204, 3-Isopropyl-7-(pyrazin-2-ylmethyl)-8,9-dihydro-6H-imidazo[5,1-f]pyrazino[2,1-c][1,2,4]triazin-11(7H)-one], which IC50 is on record?
Answer: The IC50 was 1 to 10 µM.

Question: For `Cc1ccc(CN2CCn3c(nc4c(cnn4C(C)C)c3=O)C2)cn1` [Compound I-186, 1-Isopropyl-8-((6-methylpyridin-3-yl)methyl)-6,7,8,9-tetrahydropyrazino[1,2-a]pyrazolo[3,4-d]pyrimidin-4(1H)-one], which IC50 is on record?
Answer: Its IC50 is 1 to 10 µM.

Question: Which IC50 does the source give for `COc1ccc(CN2CCn3c(nn4c(C5CCCC5)nnc4c3=O)C2)cc1` [Compound I-131, 3-Cyclopentyl-7-(4-methoxybenzyl)-8,9-dihydro-6H-pyrazino[2,1-c][1,2,4]triazolo[3,4-f][1,2,4]triazin-11(7H)-one] here?
Answer: The IC50 was less than 1 µM.

Question: How did the IC50 turn out when `CC(C)CN1CCn2c(nc3c(cnn3C(C)C)c2=O)C1` [Compound I-57, 8-Isobutyl-1-isopropyl-6,7,8,9-tetrahydropyrazino[1,2-a]pyrazolo[3,4-d]pyrimidin-4(1H)-one] was run?
Answer: Its IC50 is greater than 10 µM.

Question: With `CC(C)n1ncc2c(=O)n3c(nc21)CN(Cc1cncnc1)CC3` [Compound I-190, 1-Isopropyl-8-(pyrimidin-5-ylmethyl)-6,7,8,9-tetrahydropyrazino[1,2-a]pyrazolo[3,4-d]pyrimidin-4(1H)-one] as the compound, how does the IC50 read?
Answer: The IC50 was greater than 10 µM.

Question: Which IC50 does the source give for `Cc1cnc(CN2CCn3c(nc4c(cnn4C4CCCC4)c3=O)C2)nc1` [Compound I-199, 1-Cyclopentyl-8-((5-methylpyrimidin-2-yl)methyl)-6,7,8,9-tetrahydropyrazino[1,2-a]pyrazolo[3,4-d]pyrimidin-4(1H)-one] here?
Answer: Its IC50 is 1 to 10 µM.

Question: With `COc1ccc(CN2CCn3c(nc4c(C5CCCC5)noc4c3=O)C2)cc1` [Compound I-129, 3-Cyclopentyl-6-(4-methoxybenzyl)-7,8-dihydro-5H-isoxazolo[4,5-d]pyrazino[1,2-a]pyrimidin-10(6H)-one] as the compound, how does the IC50 read?
Answer: Its IC50 is 1 to 10 µM.

Question: `CC(C)c1nn(C)c2c(=O)n3c(nc12)CNCC3` [Compound I-13, 3-Isopropyl-1-methyl-5,6,7,8-tetrahydropyrazino[1,2-a]pyrazolo[4,3-d]pyrimidin-10(1H)-one] was tested. Which IC50 did it give?
Answer: Its IC50 is greater than 10 µM.

Question: For `CC(C)n1ncc2c(=O)n3c(nc21)CN(c1ccncc1)CC3` [Compound I-145, 1-Isopropyl-8-(pyridin-4-yl)-6,7,8,9-tetrahydropyrazino[1,2-a]pyrazolo[3,4-d]pyrimidin-4(1H)-one], which IC50 is on record?
Answer: The IC50 was less than 1 µM.

Question: How did the IC50 turn out when `CC(C)Cc1nnc2c(=O)n3c(nn12)CN(Cc1ccc(Cl)cc1)CC3` [Compound I-215, 7-(4-Chlorobenzyl)-3-isobutyl-8,9-dihydro-6H-pyrazino[2,1-c][1,2,4]triazolo[3,4-f][1,2,4]triazin-11(7H)-one] was run?
Answer: The IC50 was less than 1 µM.

Question: Which IC50 does the source give for `CC(C)n1ncc2c(=O)n3c(nc21)C(c1ccccc1)N(C)CC3` (racemic) [Compound I-60, (±)-1-Isopropyl-8-methyl-9-phenyl-6,7,8,9-tetrahydropyrazino[1,2-a]pyrazolo[3,4-d]pyrimidin-4(1H)-one] here?
Answer: Its IC50 is greater than 10 µM.

Question: For `CC1NCCn2c1nc1c(cnn1-c1ccccc1)c2=O` (racemic) [Compound I-5, (±)-9-Methyl-1-phenyl-6,7,8,9-tetrahydropyrazino[1,2-a]pyrazolo[3,4-d]pyrimidin-4(1H)-one], which IC50 is on record?
Answer: Its IC50 is greater than 10 µM.

Question: How did the IC50 turn out when `CC(C)c1nnc2c(=O)n3c(nn12)CN(Cc1ccccc1)CC3` [Compound I-223, 7-Benzyl-3-isopropyl-8,9-dihydro-6H-pyrazino[2,1-c][1,2,4]triazolo[3,4-f][1,2,4]triazin-11(7H)-one] was run?
Answer: Its IC50 is 1 to 10 µM.

Question: How did the IC50 turn out when `CC1CN(Cc2ccccc2)Cc2nc3c(cnn3C3CCCC3)c(=O)n21` (racemic) [Compound I-101, (±)-8-Benzyl-1-cyclopentyl-6-methyl-6,7,8,9-tetrahydropyrazino[1,2-a]pyrazolo[3,4-d]pyrimidin-4(1H)-one] was run?
Answer: The IC50 was 1 to 10 µM.

Question: For `COc1ccc(C(C)N2CCn3c(nc4c(cnn4C4CCCC4)c3=O)C2)cc1` (racemic) [Compound I-114, (±)-1-Cyclopentyl-8-(1-(4-methoxyphenyl)ethyl)-6,7,8,9-tetrahydropyrazino[1,2-a]pyrazolo[3,4-d]pyrimidin-4(1H)-one], which IC50 is on record?
Answer: The IC50 was 1 to 10 µM.
